Measurements published in EP1542672B1, “R-BAMBUTEROL, ITS PREPARATION AND THERAPEUTIC USES” (priority 2002, dated 2004).

Experiments:
hyperlipidemia mice = test: Lipid lowering effects in Tyloxapol-induced hyperlipidemia mice; assay type: in vivo, Kunming strain; details: plasma; 10 mg/kg oral once a day for four days; Tyloxapol 400 mg/kg i.p.; blood 24 hours after Tyloxapol
Description: Test method: Male and […] mice, Kunming strain, 35 each, weight 18-22 grams, were used. Food and water were available ad libitum. The animals were randomized into 7 groups (n=10). Groups of animals were administered orally, via a stomach tube, vehicle (distilled water, two groups), R-bambuterol hydrochloride (10 mg/kg and 5 mg/kg), racemic bambuterol hydrochloride (10 mg/kg and 5 mg/kg) and simvastatin (10 mg/kg) once a day for four days. With the exception of one vehicle- treated group (as control), Tyloxapol (400 mg/kg, Sigma Chemical Co.) was injected into the peritoneal cavity of the mice of all groups immediately after the last treatment on the fourth day in order to induce hyperlipidemia. All the animals were fasted overnight prior to the injection of Tyloxapol. Blood samples were collected by cardiac puncture 24 hours after the injection of Tyloxapol. The blood samples were processed to plasma, and concentration of triglycerides (TG), cholesterol (CHO), high density lipoprotein (HDL), low density lipoprotein (LDL) and very low density lipoprotein (VLDL) were measured with an auto-blood analyzer (Olympic, Japan).

Rats (Sprague Dawley) = test: Cardiovascular effects in anesthetized rats (HR, MBP, Max dp/dt); assay type: in vivo; details: 30 mg/kg intravenously
Text: Test method: Rats (Sprague Dawley, 250-300g) were randomized into two groups (n=6, equal sexes). After anesthesia, plastic tubing was introduced into a carotid artery of each animal and connected to pressure transducers to record mean artery pressure (MBP) and heart rate (HR). Another tube was introduced into the left ventricular chamber via the another carotid artery and connected to a pressure transducer. Left ventricular systolic pressure (LVSP) and the first order of differential of LVSP (dp/dt) as an index for inotropic effects were recorded. R-Bambuterol and racemic bambuterol hydrochloride were dissolved in saline and administrated intravenously at 30 mg/kg to each animal. The HR, MBP and Max dp/dt were measured before treatment (control) and after the treatments when the maximum response occurred, and 20 min after treatment as indication of recovery.

[1] = bronchospasmolytic activity upon oral administration; cited from earlier work
[2] = 20 min after treatment (recovery)
[3] = change from pre-treatment control at maximum response

For `CN(C)C(=O)Oc1cc(OC(=O)N(C)C)cc(C(O)CNC(C)(C)C)c1` (racemic) [bambuterol], the CHO lipid levels (hyperlipidemia mice) was 125.2 ± 19.8 mg/dL, the HDL lipid levels (hyperlipidemia mice) was 50 ± 17 mg/dL and the LDL lipid levels (hyperlipidemia mice) was 30 ± 6 mg/dL. For the same molecule, the TG lipid levels (hyperlipidemia mice) was 148 ± 45 mg/dL, the VLDL lipid levels (hyperlipidemia mice) was 44.2 ± 14.4 mg/dL and the “HR, 20min after Δ” value (Rats (Sprague Dawley); [2]) was 40±9 Beat/min. The “MBP, 20min after Δ” value (Rats (Sprague Dawley); [2]) was 1.1±0.4 Kpa, the “MBP, 20min after Δ, % of control” value (Rats (Sprague Dawley); [2]) was 8.3% and the “Maxdp/dt, 20min after Δ” value (Rats (Sprague Dawley); [2]) was 13±3.8 Kpa/sec. For the same molecule, the “Maxdp/dt, 20min after Δ, % of control” value (Rats (Sprague Dawley); [2]) was 4.8%, the “HR, 20min after Δ, % of Control” value (Rats (Sprague Dawley); 20 min after treatment (recovery), listed as Rac-Bambuterol) was 9.5% and the “HR, 20min after Δ, % of Control” value (Rats (Sprague Dawley); 20 min after treatment (recovery), listed as racemic bambuterol hydrochloride) was 9.5%. The “HR, Treatment Δ, % of Control” value (Rats (Sprague Dawley); at maximum response) was 20.6%, the “MBP, Treatment Δ, % of control” value (Rats (Sprague Dawley); at maximum response) was 31.6% and the “Maxdp/dt, Treatment Δ, % of control” value (Rats (Sprague Dawley); at maximum response, listed as Rac-Bambuterol) was 24.4%. For the same molecule, the “Maxdp/dt, Treatment Δ, % of control” value (Rats (Sprague Dawley); at maximum response, listed as racemic bambuterol) was 24.4%, the “HR, Treatment Δ” value (Rats (Sprague Dawley); [3]) was 85.8±5 Beat/min and the “MBP, Treatment Δ” value (Rats (Sprague Dawley); [3]) was 4.2±0.5 Kpa. The “Maxdp/dt, Treatment Δ” value (Rats (Sprague Dawley); [3]) was 65.4±9 Kpa/sec and the duration of activity [1] was “more than 12 hours”.
